Results taken from patent US12012410B2, “Substituted pyrazolo[1,5-a]pyrazines for spinal muscular atrophy” (REBORNA BIOSCIENCES, INC., priority 2018, dated 2024).

What follows are compounds tested on FL-SMN mRNA (SMN transcript containing exons 7 and 8) (assay: Live-cell assay to measure changes in FL-SMN mRNA levels (qPCR) after exposure to the compounds). Details: fibroblasts derived from patients SMA (GM03813); 24 hours incubation.
Type: cell-based, human
Method in brief: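 SMA patient fibroblasts (GM03813) in DMEM/10% FBS were treated with compound (0.1% DMSO final) for 24 h. FL-SMN and Δ7 mRNA were measured by RT-qPCR against oligo DNA standard curves and normalised to GAPDH. Values are % of the DMSO control, binned by asterisk from ≥100% to ≥180%.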
With `Cc1cn2cc(-c3cc4c(=O)[nH]c(C5(F)CCN(C)CC5)nc4cn3)cc(F)c2n1` [Example 108, 2-(4-fluoro-1-methylpiperidin-4-yl)-6-(8-fluoro-2-methylimidazo[1,2-a]pyridin-6-yl)pyrido[3,4-d]pyrimidin-4(3H)-one] the “Percentage of increase (FL-SMN mRNA standardized against GAPDH, DMSO control set as 100%)” value was “** (equal to or higher than 120% but lower than 150%)”.
For `CCN1CCC(F)(c2nc3cnc(-c4cc(F)c5nc(C)cn5c4)cc3c(=O)[nH]2)CC1` [Example 109, 2-(1-ethyl-4-fluoropiperidin-4-yl)-6-(8-fluoro-2-methylimidazo[1,2-a]pyridin-6-yl)pyrido[3,4-d]pyrimidin-4(3H)-one], the “Percentage of increase (FL-SMN mRNA standardized against GAPDH, DMSO control set as 100%)” value was “*** (equal to or higher than 150% but lower than 180%)”.
With `COCCN1CCC(F)(c2nc3ccc(-c4cc(F)c5nc(C)cn5c4)cc3c(=O)[nH]2)CC1` [Example 110, 2-[4-fluoro-1-(2-methoxyethyl)piperidin-4-yl]-6-(8-fluoro-2-methylimidazo[1,2-a]pyridin-6-yl)quinazolin-4(3H)-one] the “Percentage of increase (FL-SMN mRNA standardized against GAPDH, DMSO control set as 100%)” value was “** (equal to or higher than 120% but lower than 150%)”.
With `Cc1nc2c(F)cc(-c3cc4c(=O)[nH]c(C5(F)CCNCC5)nc4cn3)cc2o1` [Example 111, 6-(4-fluoro-2-methy-1,3-benzoxazol-6-yl)-2-(4-fluoropiperidin-4-yl)pyrido[3,4-d]pyrimidin-4(3H)-one] the “Percentage of increase (FL-SMN mRNA standardized against GAPDH, DMSO control set as 100%)” value was “**** (equal to or higher than 180%)”.
In the case of `COCCN1CCC(c2nc3cnc(-c4cc(F)c5nc(C)cn5c4)cc3c(=O)[nH]2)CC1` [Example 112, 6-(8-fluoro-2-methylimidazo[1,2-a]pyridin-6-yl)-2-[1-(2-methoxyethyl)piperidin-4-yl]pyrido[3,4-d]pyrimidin-4(3H)-one], the “Percentage of increase (FL-SMN mRNA standardized against GAPDH, DMSO control set as 100%)” value is reported as “**** (equal to or higher than 180%)”.
For `COCCN1CCC(c2nc3cnc(-c4cc(F)c5nc(C)oc5c4)cc3c(=O)[nH]2)CC1` [Example 113, 6-(4-fluoro-2-methyl-1,3-benzoxazol-6-yl)-2-[1-(2-methoxyethyl)piperidin-4-yl]pyrido[3,4-d]pyrimidin-4(3H)-one], the “Percentage of increase (FL-SMN mRNA standardized against GAPDH, DMSO control set as 100%)” value was “**** (equal to or higher than 180%)”.
For `Cc1cn2cc(-c3cc4c(=O)[nH]c(C5CCN(C6CC6)CC5)nc4cn3)cc(F)c2n1` [Example 114, 2-(1-cyclopropylpiperidin-4-yl)-6-(8-fluoro-2-methylimidazo[1,2-a]pyridin-6-yl)pyrido[3,4-d]pyrimidin-4(3H)-one], the “Percentage of increase (FL-SMN mRNA standardized against GAPDH, DMSO control set as 100%)” value was “**** (equal to or higher than 180%)”.
`Cc1nc2c(F)cc(-c3cc4c(=O)[nH]c(C5CCN(C6CC6)CC5)nc4cn3)cc2o1` [Example 115, 2-(1-cyclopropylpiperidin-4-yl)-6-(4-fluoro-2-methyl-1,3-benzoxazol-6-yl)pyrido[3,4-d]pyrimidin-4(3H)-one] was tested, and the “Percentage of increase (FL-SMN mRNA standardized against GAPDH, DMSO control set as 100%)” value was “**** (equal to or higher than 180%)”.
`Cc1cn2nc(-c3nc4ccc(N5CCN(C6CC6)CC5)cc4c(=O)[nH]3)cc2cn1` [Example 116, 6-(4-cyclopropylpiperazin-1-yl)-2-(6-methylpyrazolo[1,5-a]pyrazin-2-yl)quinazolin-4(3H)-one] was tested, and the “Percentage of increase (FL-SMN mRNA standardized against GAPDH, DMSO control set as 100%)” value was “**** (equal to or higher than 180%)”.
In the case of `Cc1cc2nc(-c3nc4ccc(N5CCN(C6CC6)CC5)cc4c(=O)[nH]3)cn2c(C)n1` [Example 117, 6-(4-cyclopropylpiperazin-1-yl)-2-(5,7-dimethylimidazo[1,2-c]pyrimidin-2-yl)quinazolin-4(3H)-one], the “Percentage of increase (FL-SMN mRNA standardized against GAPDH, DMSO control set as 100%)” value is reported as “**** (equal to or higher than 180%)”.
For `Cc1cn2nc(-c3nc4ccc(N5CCN(C6CC6)CC5)cc4c(=O)[nH]3)ccc2n1` [Example 118, 6-(4-cyclopropylpiperazin-1-yl)-2-(2-methylimidazo[1,2-b]pyridazin-6-yl)quinazolin-4(3H)-one], the “Percentage of increase (FL-SMN mRNA standardized against GAPDH, DMSO control set as 100%)” value was “*** (equal to or higher than 150% but lower than 180%)”.
`Cc1cn2nc(-c3nc4ccc(N5CCN(C(C)C)CC5)cc4c(=O)[nH]3)cc2c(C)n1` [Example 119, 2-(4,6-dimethylpyrazolo[1,5-a]pyrazin-2-yl)-6-(4-isopropylpiperazin-1-yl)quinazolin-4(3H)-one bistrifluoroacetate] was tested, and the “Percentage of increase (FL-SMN mRNA standardized against GAPDH, DMSO control set as 100%)” value was “**** (equal to or higher than 180%)”.
In the case of `Cc1cn2nc(-c3nc4ccc(N5CCN(CC6CC6)CC5)cc4c(=O)[nH]3)cc2c(C)n1` [Example 120, 6-[4-(cyclopropyImethyl)piperazin-1-yl]-2-(4,6-dimethylpyrazolo[1,5-a]pyrazin-2-yl)quinazolin-4(3H)-one bistrifluoroacetate], the “Percentage of increase (FL-SMN mRNA standardized against GAPDH, DMSO control set as 100%)” value is reported as “**** (equal to or higher than 180%)”.
For `Cc1cn2nc(-c3nc4ccc(N5CCN6CCC[C@H]6C5)cc4c(=O)[nH]3)cc2c(C)n1` [Example 121, (S)-2-(4,6-dimethylpyrazolo[1,5-a]pyrazin-2-yl)-6-(hexahydropyrrolo[1,2-a]pyrazin-2(1H)-yl)quinazolin-4(3H)-one bistrifluoroacetate], the “Percentage of increase (FL-SMN mRNA standardized against GAPDH, DMSO control set as 100%)” value was “**** (equal to or higher than 180%)”.
For `Cc1cn2nc(-c3nc4ccc(N5CCNC(C)(C)C5)cc4c(=O)[nH]3)cc2c(C)n1` [Example 122, 6-(3,3-Dimethylpiperazin-1-yl)-2-(4,6-dimethylpyrazolo[1,5-a]pyrazin-2-yl)quinazolin-4(3H)-one bistrifluoroacetate], the “Percentage of increase (FL-SMN mRNA standardized against GAPDH, DMSO control set as 100%)” value was “**** (equal to or higher than 180%)”.
In the case of `Cc1cn2nc(-c3nc4ccc(N5CCNC6(CC6)C5)cc4c(=O)[nH]3)cc2c(C)n1` [Example 123, 2-(4,6-dimethylpyrazolo[1,5-a]pyrazin-2-yl)-6-(4,7-diazaspiro[2.5Joctan-7-yl)quinazolin-4(3H)-one bistrifluoroacetate], the “Percentage of increase (FL-SMN mRNA standardized against GAPDH, DMSO control set as 100%)” value is reported as “**** (equal to or higher than 180%)”.
`Cc1cn2nc(-c3nc4ccc(N5CCN6CCCCC6C5)cc4c(=O)[nH]3)cc2c(C)n1` (centres unmarked) [Example 124, 2-(4,6-dimethylpyrazolo[1,5-a]pyrazin-2-yl)-6-(octahydro-2H-pyrido[1,2-a]pyrazin-2-yl)quinazolin-4(3H)-one] was tested, and the “Percentage of increase (FL-SMN mRNA standardized against GAPDH, DMSO control set as 100%)” value was “*** (equal to or higher than 150% but lower than 180%)”.
For `Cc1cn2nc(-c3nc4ccc(N5CCN6CCCCC6C5)cc4c(=O)[nH]3)cc2c(C)n1` (centres unmarked) [Example 125, 2-(4,6-dimethylpyrazolo[1,5-a]pyrazin-2-yl)-6-(octahydro-2H-pyrido[1,2-a]pyrazin-2-yl)quinazolin-4(3H)-one (distomer)], the “Percentage of increase (FL-SMN mRNA standardized against GAPDH, DMSO control set as 100%)” value was “** (equal to or higher than 120% but lower than 150%)”.
For `Cc1cn2nc(-c3nc4ccc(N5CCN6CCC[C@@H]6C5)cc4c(=O)[nH]3)cc2c(C)n1` [Example 126, (R)-2-(4,6-dimethylpyrazolo[1,5-a]pyrazin-2-yl)-6-(hexahydropyrrolo[1,2-a]pyrazin-2(1H)-yl)quinazolin-4(3H)-one], the “Percentage of increase (FL-SMN mRNA standardized against GAPDH, DMSO control set as 100%)” value was “**** (equal to or higher than 180%)”.
For `Cc1cn2nc(-c3nc4ccc(N5CCN(C)C[C@@H]5C)cc4c(=O)[nH]3)cc2c(C)n1` [Example 127, (S8)-6-(2,4-simethylpiperazin-1-yl)-2-(4,6-dimethylpyrazolo[1,5-a]pyrazin-2-yl)quinazolin-4(3H)-one], the “Percentage of increase (FL-SMN mRNA standardized against GAPDH, DMSO control set as 100%)” value was “*** (equal to or higher than 150% but lower than 180%)”.
